In US7919457B2, “Thrombin peptide derivative dimers” (Orthologic Corp., priority 2002, dated 2011):

What was measured:
thrombin receptors = experiment: Peptide competition for [125I]-alpha-thrombin binding to ME cells; conditions: for fold higher concentration required for 30% inhibition than p508-530: [125I]-alpha-thrombin binding; for Conc. at Maximal % Inhibition / Concentration Required for 30% Inhibition / Maximal % Inhibition: [125I]-alpha-thrombin binding to ME cells; for Maximal % Inhibition: at the conc. printed below the value
Source text: Thrombin peptide derivatives are believed to activate cells by binding to a high-affinity cell-surface thrombin receptor known as the non-proteolytically-activated thrombin receptor (hereinafter “NPAR”) (R. Horvat, et. al., J. Cell Sci. 108, 1155-1164, 1995). Compounds which stimulate NPAR are said to be thrombin receptor agonists. NPAR activation can be assayed based on the ability of molecules to stimulate cell proliferation when added to fibroblasts in the presence of submitogenic concentrations of thrombin or molecules that activate protein kinase C or compete with ^125I-thrombin for high affinity binding to thrombin receptors, as disclosed in U.S. Pat. Nos. 5,352,664 and 5,500,412 and in Glenn et al., J. Peptide Research 1:65 (1988).
To further identify regions of thrombin involved in high-affinity binding and generation of mitogenic signals, two peptides representing specific domains within p508-530 were tested. The first peptide represented residues 519 to 530 of the B-chain region of human prothrombin, a region of thrombin that is highly conserved among serine proteases. The second peptide represented residues 517 to 520 of prothrombin, a region of thrombin homologous to the fibronectin cell binding domain.
Both of these peptides were able to compete for 30% to 50% of the binding of [^125I]-alpha-thrombin to ME cells, but both required higher concentrations than was required with the initial peptide p508-530 (Table 1). For example, 30% inhibition of [^125I]-alpha-thrombin binding required 33- to 50-fold higher concentrations of p519-530 and p517-520 than p508-530, respectively. Thus, both of these peptides appear to interact with thrombin receptors, but at a lower affinity than p508-530. Because p517-520 is homologous to the fibronectin cell binding domain, a peptide having the sequence Arg-Gly-Ala-Ser (SEQ ID NO:13; the sequence of the fibronectin specific peptide) was also tested for its ability to compete for [^125I]-alpha-thrombin binding. […] Thus, the receptor for alpha-thrombin is not the same membrane protein that specifically interacts with fibronectin and causes the apparent growth promoting action of fibronectin.

NIL cells = conditions: increasing concentrations, quiescent NIL cells, 2 and 4 nM alpha-thrombin; FIG. 6 of U.S. Pat. No. 5,500,412; cited from earlier work

| Substance | competition with [125I]-alpha-thrombin for binding (thrombin receptors; at a concentration of 1.3 μM) | effect on DNA synthesis (NIL cells) | fold higher concentration required for 30% inhibition than p508-530 (thrombin receptors) [fold] | Conc. at Maximal % Inhibition (thrombin receptors) | Concentration Required for 30% Inhibition (thrombin receptors) [nM] | Maximal % Inhibition (thrombin receptors) [%] |
| --- | --- | --- | --- | --- | --- | --- |
| Arg-Gly-Ala-Ser (RGAS; Fibronectin fragment) | did not compete | – | – | – | – | – |
| DACEGDSGGPFV (Thrombin peptide derivative) [p519-530] | – | enhanced DNA synthesis over a range of concentrations | 33 | (800 nM) | 200 | 51 |
| RGDA (Thrombin peptide fragment) [p517-520] | – | inhibited DNA synthesis | 50 | (2.7 μM) | 300 | 50 |
